Results taken from BindingDB's records for patent US11814384 (Kinnate Biopharma, 2023).

Biological target: Serine/threonine-protein kinase B-raf (Homo sapiens, UniProt P15056)
Test: Enzymatic BRAF Kinase Activity Assay
Protocol: Small molecule inhibition of the BRAF kinases was measured using ADP-Glo assay. In the assay, […], resulting in luciferase reaction and luminescent readout with light generated proportional to the relative kinase activity. Compounds diluted in DMSO were used in 10-point, 3-fold dose curve for both assays. Final concentrations of 6 nM BRAF (CarnaBio, Cat. 09-122) or 3 nM RAF1 (CarnaBio, Cat. 09-125) and 30 nM MEK1 substrate (Millipore, Cat. 14-420) were incubated with 3 µM ATP, 10 mM MgCl2, 0.003% Brij-35, 2 mM DTT, 0.05% BSA, 1 mM EGTA, and 50 mM HEPES for 90 minutes at room temp prior to addition of ADP-Glo reagent (Promega, Cat. V9102) for 40 minutes, and detection reagent for 45 minutes. Luminescence was read on an Envision plate reader (PerkinElmer) and percent remaining activity was used to calculate IC50 using a four-parameter fit model using Dotmatics Knowledge Solutions Studies curve fitting (Dotmatics, Bishops Stortford, UK, CM23).

Chain of Serine/threonine-protein kinase B-raf (P15056 whole entry): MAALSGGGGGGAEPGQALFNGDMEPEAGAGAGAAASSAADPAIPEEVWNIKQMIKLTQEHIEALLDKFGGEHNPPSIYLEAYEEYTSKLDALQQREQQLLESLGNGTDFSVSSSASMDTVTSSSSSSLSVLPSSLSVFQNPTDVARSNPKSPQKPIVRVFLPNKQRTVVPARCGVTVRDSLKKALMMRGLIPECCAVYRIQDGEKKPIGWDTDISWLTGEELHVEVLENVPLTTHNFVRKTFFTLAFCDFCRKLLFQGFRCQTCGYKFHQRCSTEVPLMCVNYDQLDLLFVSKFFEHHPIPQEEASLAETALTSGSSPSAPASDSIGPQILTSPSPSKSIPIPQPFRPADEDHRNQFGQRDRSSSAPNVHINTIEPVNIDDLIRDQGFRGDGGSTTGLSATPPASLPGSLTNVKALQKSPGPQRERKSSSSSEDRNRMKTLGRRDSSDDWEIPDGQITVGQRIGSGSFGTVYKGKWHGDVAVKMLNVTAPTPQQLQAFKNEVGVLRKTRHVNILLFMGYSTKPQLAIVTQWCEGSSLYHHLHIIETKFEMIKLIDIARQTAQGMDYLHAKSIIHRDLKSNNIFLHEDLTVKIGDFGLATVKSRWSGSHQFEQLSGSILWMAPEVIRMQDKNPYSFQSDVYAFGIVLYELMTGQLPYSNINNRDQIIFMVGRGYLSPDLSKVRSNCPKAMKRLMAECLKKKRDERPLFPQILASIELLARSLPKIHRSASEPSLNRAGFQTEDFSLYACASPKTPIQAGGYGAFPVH

Q: How did the IC50 turn out when `Cc1cc(F)c(NC(=O)c2coc(C(C)(C)C)n2)cc1-c1cc(N2CCOCC2)c2nccn2c1` [US11814384, Example 184] was run?
A: in the range around 5.5 nM

Q: `Cc1ccc(NC(=O)c2cnc(C(C)(C)C)o2)cc1-c1cc(N2CCOCC2)c2nccn2c1` [US11814384, Example 185] was tested. Which IC50 did it give?
A: in the range around 5.5 nM

Q: How did the IC50 turn out when `Cc1cc(F)c(NC(=O)c2cnn(C(C)(C)C)n2)cc1-c1cc(N2CCOCC2)c2nccn2c1` [US11814384, Example 186] was run?
A: in the range around 5.5 nM

Q: For `Cc1cc(F)c(NC(=O)c2ccnc(C34CC(C3)C4)c2)cc1-c1cc(N2CCOCC2)c2nccn2c1` [US11814384, Example 188], which IC50 is on record?
A: in the range around 5.5 nM

Q: How did the IC50 turn out when `Cc1cc(F)c(NC(=O)c2cnn(C(C)(C)C)c2F)cc1-c1cc(N2CCOCC2)n2ncnc2c1` [US11814384, Example 189] was run?
A: in the range around 5.5 nM

Q: Which IC50 does the source give for `Cc1cc(F)c(C(=O)Nc2cnn(C(C)(C)C)c2)cc1-c1cc(N2CCOCC2)c2nccn2c1` [US11814384, Example 204] here?
A: in the range around 5.5 nM

Q: `Cc1cc(F)c(C(=O)Nc2cccc(C(C)(C)C)c2)cc1-c1cc(N2CCOCC2)c2nccn2c1` [US11814384, Example 205] was tested. Which IC50 did it give?
A: in the range around 55 nM

Q: Which IC50 does the source give for `Cc1cc(F)c(NC(=O)c2ccnc3c2ccn3C(C)C)cc1-c1cc(N2CCOCC2)c2nccn2c1` [US11814384, Example 206] here?
A: in the range around 5.5 nM

Q: Which IC50 does the source give for `Cc1cc(F)c(NC(=O)c2cnn(C(C)(C)C)c2F)cc1-c1cc(N2CCOCC2)c2nnnn2c1` [US11814384, Example 220] here?
A: in the range around 55 nM

Q: `CC(C)(C)n1ncc(C(=O)Nc2cc(-c3cc(N4CCOCC4)c4nccn4c3)c(Cl)cn2)c1F` [US11814384, Example 226] was tested. Which IC50 did it give?
A: in the range around 5.5 nM

Q: `Cc1cc(F)c(NC(=O)c2cnn(C(C)(C)C)c2F)cc1-c1cn2ccnc2c(N2CCOCC2)n1` [US11814384, Example 228] was tested. Which IC50 did it give?
A: in the range around 5.5 nM

Q: `Cc1cc(F)c(NC(=O)c2cc(F)n(C3(C)CC3)c2)cc1-c1cc(N2CCOCC2)c2nccn2c1` [US11814384, Example 247] was tested. Which IC50 did it give?
A: in the range around 55 nM

Q: With `Cc1cc(F)c(C(=O)Nc2cnn(C(C)(C)C)c2F)cc1-c1cc(N2CCOCC2)c2nccn2n1` [US11814384, Example 260] as the molecule, how does the IC50 read?
A: in the range around 5.5 nM

Q: For `Cc1cc(F)c(NC(=O)c2ccnc(N(C)C(F)(F)F)c2)cc1-c1cc(N2CCOCC2)c2nccn2c1` [US11814384, Example 263], which IC50 is on record?
A: in the range around 5.5 nM

Q: With `Cc1cn2nc(-c3cc(NC(=O)c4cnn(C(C)(C)C)c4F)c(F)cc3C)cc(N3CCOCC3)c2n1` [US11814384, Example 265] as the molecule, how does the IC50 read?
A: in the range around 5.5 nM

Q: How did the IC50 turn out when `Cc1cn2cc(-c3cc(C(=O)Nc4cnn(C(C)(C)C)c4F)c(F)cc3C)cc(N3CCOCC3)c2n1` [US11814384, Example 267] was run?
A: in the range around 5.5 nM

Q: How did the IC50 turn out when `Cc1cc(F)c(NC(=O)c2cnn(C(C)(C)C)c2F)cc1-c1cc(N2CCOCC2)c2nc(C)c(F)n2c1` [US11814384, Example 273] was run?
A: in the range around 5.5 nM

Q: `Cc1ccc(NC(=O)c2cnn(C(C)(C)C)c2F)cc1-c1cc(N2CCOCC2)c2nc(C)c(F)n2c1` [US11814384, Example 274] was tested. Which IC50 did it give?
A: in the range around 5.5 nM

Q: Which IC50 does the source give for `Cc1nc2cc(-c3cc(NC(=O)c4cnn(C(C)(C)C)c4F)c(F)cc3C)cc(N3CCOCC3)n2n1` [US11814384, Example 282] here?
A: in the range around 55 nM

Q: With `Cc1nc2cc(-c3cc(C(=O)Nc4cnn(C(C)(C)C)c4F)c(F)cc3C)cc(N3CCOCC3)n2n1` [US11814384, Example 283] as the molecule, how does the IC50 read?
A: in the range around 5.5 nM

Q: For `Cc1nc2c(N3CCOCC3)cc(-c3cc(C(=O)Nc4cnn(C(C)(C)C)c4F)c(F)cc3C)cn2n1` [US11814384, Example 285], which IC50 is on record?
A: in the range around 5.5 nM

Q: For `Cc1nc2cc(-c3cc(NC(=O)c4cnc(C(C)(C)C)o4)c(F)cc3C)cc(N3CCOCC3)n2n1` [US11814384, Example 291], which IC50 is on record?
A: in the range around 55 nM

Q: With `Cc1nc2cc(-c3cc(NC(=O)c4coc(C(C)(C)C)n4)c(F)cc3C)cc(N3CCOCC3)n2n1` [US11814384, Example 292] as the molecule, how does the IC50 read?
A: in the range around 55 nM

Q: Which IC50 does the source give for `Cc1nc2c(N3CCOCC3)cc(-c3cc(NC(=O)c4cnc(C(C)(C)C)o4)c(F)cc3C)cn2n1` [US11814384, Example 293] here?
A: in the range around 5.5 nM

Q: How did the IC50 turn out when `Cc1nc2c(N3CCOCC3)cc(-c3cc(NC(=O)c4coc(C(C)(C)C)n4)c(F)cc3C)cn2n1` [US11814384, Example 294] was run?
A: in the range around 55 nM

Q: `Cc1nc2c(N3CCOCC3)cc(-c3cc(NC(=O)c4cnn(C(C)(C)C)n4)c(F)cc3C)cn2n1` [US11814384, Example 303] was tested. Which IC50 did it give?
A: in the range around 5.5 nM

Q: With `Cc1cc(F)c(NC(=O)c2cnc(C(C)(C)C)o2)cc1-c1cc(N2CCOCC2)n2nc(C3CC3)nc2c1` [US11814384, Example 304] as the molecule, how does the IC50 read?
A: in the range around 5.5 nM

Q: For `CCc1nc2cc(-c3cc(NC(=O)c4cnc(C(C)(C)C)o4)c(F)cc3C)cc(N3CCOCC3)n2n1` [US11814384, Example 305], which IC50 is on record?
A: in the range around 55 nM

Q: For `CCc1nc2cc(-c3cc(C(=O)Nc4cnn(C(C)(C)C)c4F)c(F)cc3C)cc(N3CCOCC3)n2n1` [US11814384, Example 306], which IC50 is on record?
A: in the range around 5.5 nM

Q: `Cc1cc(F)c(C(=O)Nc2cnn(C(C)(C)C)c2F)cc1-c1cc(N2CCOCC2)n2nc(C3CC3)nc2c1` [US11814384, Example 307] was tested. Which IC50 did it give?
A: in the range around 5.5 nM

Q: For `Cc1cc(F)c(C(=O)Nc2cnn(C(C)(C)C)c2F)cc1-c1cc(N2CCOCC2)c2nc(C(C)C)nn2c1` [US11814384, Example 308], which IC50 is on record?
A: in the range around 5.5 nM

Q: How did the IC50 turn out when `Cc1cc(F)c(C(=O)Nc2cnn(C(C)(C)C)c2F)cc1-c1cc(N2CCOCC2)c2nc(N(C)C)nn2c1` [US11814384, Example 309] was run?
A: in the range around 5.5 nM

Q: For `Cc1nc2c(N3CCOCC3)cc(-c3cc(C(=O)Nc4cn(C5(C)CC5)nc4F)c(F)cc3C)cn2n1` [US11814384, Example 310], which IC50 is on record?
A: in the range around 5.5 nM
